Data: patent US12527835B2, “Brevican-binding peptides for brain tumor imaging” (The Brigham and Women's Hospital, Inc., priority 2018, dated 2026)
Where a SMILES comes first, the peptide text is derived from it. Where no end group is shown, it is not given here. [ ]: non-standard residue; d: D form. The star is where a group is joined. X1 = O=C(O)c1cc(NC(=S)*)ccc1-c1c2ccc(=O)cc-2oc2cc(O)ccc12; Ahx = NCCCCCC(=O)O

Experiments:
[1] = test system: human BBB organoids; assay: BBB organoid peptide permeability assay; format: in vitro ADME; settings: Cy5.5-labeled peptide, 10 μM, 3 hrs
Protocol: Immortalized hCMEC/D3, primary HBVP and primary human astrocytes were used for generation of BBB organoids as previously described (Cho et al., Nat Commun 8, 15623 (2017); Fadzen et al., J. Am. Chem. Soc. 139, 15628-15631 (2017)). Briefly, agarose (0.5 g) was dissolved in 50 mL of MilliQ water or PBS in a conical flask and the solution was heated in a microwave for 1-2 minutes until completely dissolved. Melted agarose was transferred into a sterile tissue culture hood and immediately poured into a 50-mL sterile basin. 50 μL of melted agarose was dispensed into each well in a 96-well plate using a multichannel pipette. The plate was set aside to allow agarose to solidify completely inside the wells for at least 15 minutes. […] Each cell type was counted using a hemocytometer, and 1,500 of each cell type were seeded into each well containing solidified agarose. […]
For peptide permeability analyses, after 48 hrs, organoids that formed successfully were pooled together into a 0.5-mL microcentrifuge tube in BBB working medium. […] The organoids were then transferred onto a thin-well chambered coverglass and imaged by confocal fluorescence microscopy. Quantification of peptide permeability was performed using the ImageJ software, where the mean fluorescence intensity of the core of each spheroid (at a depth between 50-90 μm) was measured, and then plotted on GraphPad Prism.

[2] = test system: HEK-Bcan cells; assay: Flow cytometry blocking study with 50× molar excess of unlabeled peptide; format: cell-based, human; settings: fluorescein-conjugated peptide 1 μM
Protocol: Cells were washed once with PBS and then, treated with 1 mL of 2.5 mM EDTA to dissociate the cells. The EDTA was removed by centrifugation, and PBS supplemented with 10% FBS was added to create a single-cell suspension. All peptide stocks were dissolved in DMSO, and stored at −20° C. in the dark. Cells were incubated with each peptide (at the desired final concentration, between 1-10 μM) for 3 hrs at 37° C. in the dark under constant rotation. After incubation, cells were washed 3× with PBS with 10% FBS (by centrifugation at 7000 rpm for 3 mins each). Then, cells were resuspended in 3.7% formaldehyde for fixation, and finally washed once with PBS. Cells were evaluated for peptide uptake (mean fluorescence intensity) by flow cytometry (10,000-20,000 events).
For blocking studies, cells were dissociated as described above and resuspended in cold PBS with 10% FBS. Cells were then incubated with a 50× molar excess of unlabeled peptide for 10 mins on ice, before adding the corresponding FITC-labeled peptide at a final concentration of 1 μM and incubated for 1.5 hrs on ice. Cells were then washed with cold PBS with 10% FBS, fixed and analyzed by flow cytometry.

[3] = test system: BT188 glioma stem cells; assay: Peptide uptake in BT188 (BΔg-high) versus BT145 (BΔg-low) glioma stem cells, fluorescence imaging; format: cell-based, human; settings: fluorescein-labeled peptides, 5 μM
Source text: FIGS. 3A-I. Peptide characterization for BΔg specificity in glioma stem cells. (a) Table summary listing the properties of 7 peptides (composed of 8 D-amino acid residues, SEQ ID NOs:3-9, in order of appearance) that were isolated from the OBOC library screen. MW=molecular weight; KD=Kyte-Doolittle scale for amino acid hydropathy (positive scores indicate […]) (Kyte and Doolittle, J. Mol. Biol. 157, 105-132 (1982)). (b) Chemical structure showing the linkage between the peptide and FITC. (c) Western blot analysis showing the level of BΔg and Bcan in human embryo kidney (HEK) cells, and Bcan-overexpressing HEK cells (HEK-Bcan). […] Each group was normalized to a no-blocking (vehicle) control. Statistics were performed using multiple t-tests, and significance was measured in comparison to each vehicle control (p<0.0001). (e) Uptake of fluorescein-labeled BTP-2, 7, 8, 9, and 10 (at 5 μM conc.) in BT188 (BΔg-high) or BT145 (BΔg-low) glioma stem cells (GSCs). Western blot analysis on the top right confirms the BΔg expression level. […] Statistics were performed using the two-way ANOVA and Tukey's Multiple Comparison test. (f) Chemical structure showing the linkage between the peptide and Cy5.5 dye. (g) Western blot analysis showing the expression of BΔg in GBM-6 cells, with negligible BΔg level in astrocytes or neural progenitor cells (NPC). (h) Graph showing the cell uptake ranking of the top 3 peptide candidates, BTP-7, 8 and 9 in GBM-6 cells as determined by flow cytometry analysis with s.d. error bars (5 μM conc.; nevents=20,000 cells; nexperiment=5). Each group is normalized to the control scramble peptide (Scr-8). Statistics were performed using the one-way ANOVA and Tukey's Multiple Comparison test (significance were measured in comparison to the Scr-8 control). (i) Bar graph showing the uptake of BTP-7, 8 and 9 in GBM-6 cells and NPC with 95% confidence interval error bars (1 μM conc.; nevents=20,000 cells). Statistics were performed using the two-way ANOVA and Sidak's Multiple Comparison test.

[4] = Solubility in aqueous solutions
[5] = cited from earlier work
[6] = molecular target: T1, recombinant BΔg protein (deglycosylated brevican) (Homo sapiens, UniProt Q96GW7); assay: Octet steady state binding affinity to recombinant BΔg; settings: KD of labeled versus unlabeled peptide
T1 construct: purchased R&D Systems 4009-BC-050
T1 sequence (Q96GW7 23-911): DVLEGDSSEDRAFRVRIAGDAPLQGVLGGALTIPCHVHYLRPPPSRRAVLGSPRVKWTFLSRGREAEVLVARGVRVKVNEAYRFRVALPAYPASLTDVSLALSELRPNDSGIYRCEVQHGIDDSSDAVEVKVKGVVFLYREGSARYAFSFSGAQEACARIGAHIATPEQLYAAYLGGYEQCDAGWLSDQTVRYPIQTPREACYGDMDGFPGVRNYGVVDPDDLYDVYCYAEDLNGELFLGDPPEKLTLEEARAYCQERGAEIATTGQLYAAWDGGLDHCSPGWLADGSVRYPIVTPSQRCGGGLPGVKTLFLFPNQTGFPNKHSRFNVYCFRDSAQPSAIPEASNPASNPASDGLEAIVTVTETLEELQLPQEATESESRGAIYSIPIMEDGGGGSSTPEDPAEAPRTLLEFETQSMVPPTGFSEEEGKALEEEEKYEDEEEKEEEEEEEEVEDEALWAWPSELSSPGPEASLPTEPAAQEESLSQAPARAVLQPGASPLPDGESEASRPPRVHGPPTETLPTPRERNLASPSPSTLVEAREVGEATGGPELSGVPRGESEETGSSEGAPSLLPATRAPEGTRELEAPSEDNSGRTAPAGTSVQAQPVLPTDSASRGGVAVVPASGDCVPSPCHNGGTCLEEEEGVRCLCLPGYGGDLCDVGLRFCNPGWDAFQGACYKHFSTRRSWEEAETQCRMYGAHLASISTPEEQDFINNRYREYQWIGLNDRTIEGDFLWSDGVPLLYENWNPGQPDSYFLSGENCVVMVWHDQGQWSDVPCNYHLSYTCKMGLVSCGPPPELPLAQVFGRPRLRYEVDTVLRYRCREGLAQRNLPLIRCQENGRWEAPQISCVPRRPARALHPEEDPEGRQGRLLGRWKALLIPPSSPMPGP
Protocol: A ForteBio OctetRed384 instrument was used to study the binding kinetics of each peptide to recombinant human brevican (re-suspended in PBS and 0.1 mM EDTA, pH 6.8). The brevican protein was deglycosylated prior to experimental use in water+0.05% tween, PI, sialidase, 0-glycosidase, N-glycosidase in sodium acetate [200 mM], NaCl [250 mM], Tris-HCl [200 mM], pH 7.5.) in the presence of protease inhibitor overnight at 4° C. (this entire composition will be referred to as ‘de-glycosylation buffer’). […] The final volume for all the solutions was 80 μl/well. Assays were performed at 30° C. in solid black 384-well plates (Geiger Bio-One). Prior to beginning, Ni-NTA biosensors were soaked for 10 min in working buffer. Before loading the protein onto each biosensor, a baseline was established in working buffer for 60 s. Deglycosylated brevican (50 μg/ml BΔg; His-tagged) was loaded on the surface of each biosensors for 180 s. […] Reference biosensors were also included in the plate as internal controls, where biosensors were exposed to the ‘de-glycosylation buffer’ lacking brevican protein during the loading step. A 60 s biosensor washing step was applied. Then, biosensors were exposed to the analyte (peptide) in working buffer (ranging between 0-10 μM BTP) for 300 s during the ‘association’ step. Finally, the biosensors were exposed to working buffer (without peptide) during the ‘dissociation’ step for 600 s. Binding affinity of each peptide was assessed through steady state analysis, where the response unit was plotted over peptide concentration. All data was plotted and curves were fitted using the non-linear ‘one-site specific binding’ fit, and the dissociation constant (KD) value was calculated using the GraphPad Prism software.
Binding kinetics analyses were performed using the Octet RED platform (Forte Bio) to measure the binding affinity of BTP-7, 8 and 9 to purified recombinant BΔg protein.

[7] = molecular target: T2, glycosylated isoform of normal brevican (Bcan) (Homo sapiens, UniProt Q96GW7); assay: Octet steady state binding to fully glycosylated brevican (control); settings: Octet steady state analysis
T2 construct: purchased R&D Systems 4009-BC-050
T2 sequence (Q96GW7 23-911): T1 sequence (Q96GW7 23-911)

In the case of `CC(C)[C@@H](NC(=O)[C@@H](Cc1c[nH]cn1)NC(=O)CNC(=O)[C@@H](Cc1c[nH]c2ccccc12)NC(=O)[C@@H](CCCCN)NC(=O)[C@H](N)[C@H](C)O)C(=O)N[C@H](CC(N)=O)C(=O)N[C@H](CCCCN)C(N)=O` [BTP-7, TKWGHVNK], the “influx into the core of the BBB organoids” value [1] is reported as “dramatic influx”.
For “BTP-2: BΔg-targeting peptide of 8 D-amino acid residues from OBOC screen; sequence only in FIG. 3A ([dW][dR][dK][dA][dF][dT]G[dY]; not fully specified)”, the “uptake in HEK-Bcan cells in the presence of the blocking peptide” value [2] was “reduced uptake”, the “uptake in BT188 GSCs compared with BT145 GSCs” value [3] was “greater uptake” and the “solubility in aqueous solutions compared to the other peptides” value [4] was “more insoluble in aqueous solutions”.
In the case of `CC[C@@]1(O)C(=O)OCc2c1cc1n(c2=O)Cc2cc3ccccc3nc2-1` [CPT, camptothecin], the “solubility of CPT itself” value [5] is listed as “insoluble”.
With `CC(C)[C@@H](NC(=O)[C@@H](Cc1c[nH]cn1)NC(=O)CNC(=O)[C@@H](Cc1c[nH]c2ccccc12)NC(=O)[C@@H](CCCCN)NC(=O)[C@H](N)[C@H](C)O)C(=O)N[C@H](CC(N)=O)C(=O)N[C@H](CCCCN)C(=O)NCCCCCC(=O)N[C@@H](CCCCNC(=S)Nc1ccc(-c2c3ccc(=O)cc-3oc3cc(O)ccc23)c(C(=O)O)c1)C(N)=O` [BTP-7 conjugated to a fluorescein dye] (H-[dT][dK][dW]G[dH][dV][dN][dK][Ahx]K(X1)-NH2) the “binding affinity relative to the unlabeled BTP-7 (times less)” value [6] was “more than 10 times” and the “binding to the glycosylated isoform of normal brevican” value [7] was “does not bind”.
